Assay results: paper PMC6986443, “T‐495, a novel low cooperative M1 receptor positive allosteric modulator, improves memory deficits associated with cholinergic dysfunction and is characterized by low gastrointestinal side effect risk” (Pharmacology Research & Perspectives, 2020)

Columns and labels:
Experiment in all cases: Selectivity panel
Format in all cases: binding
Vasopressin V1A = target: T1, Vasopressin V1A (Homo sapiens, UniProt P37288)
T1 construct: purchased Eurofins Panlabs Taiwan Ltd
Source text: (§1) The selectivity of T‐495 at 10 μmol/L against a panel of 106 targets, including receptors, enzymes, ion channels, and transporters, was characterized (Eurofins Panlabs Taiwan Ltd., Taipei, Taiwan).

Imidazoline I2, central = system: Imidazoline I2, central
Source text: as §1

GABAA, muscimol, central = system: GABAA, muscimol, central
Source text: as §1

Adenosine A2B = target: T2, Adenosine A2B (Homo sapiens, UniProt P29275)
T2 construct: purchased Eurofins Panlabs Taiwan Ltd
Source text: as §1

Tachykinin NK3 = target: T3, Tachykinin NK3 (Homo sapiens, UniProt P29371)
T3 construct: purchased Eurofins Panlabs Taiwan Ltd
Source text: as §1

Serotonin 5-HT2C = target: T4, Serotonin 5-HT2C (Homo sapiens, UniProt P28335)
T4 construct: purchased Eurofins Panlabs Taiwan Ltd
Source text: as §1

Bradykinin B1 = target: T5, Bradykinin B1 (Homo sapiens, UniProt P46663)
T5 construct: purchased Eurofins Panlabs Taiwan Ltd
Source text: as §1

GABAB1A = target: T6, GABAB1A (Homo sapiens, UniProt Q9UBS5)
T6 construct: purchased Eurofins Panlabs Taiwan Ltd
Source text: as §1

[1] = system: Transporter, vesicular monoamine (non-selective)
Source text: as §1

Muscarinic M1 = target: T7, Muscarinic M1 (Homo sapiens, UniProt P11229)
T7 construct: purchased Eurofins Panlabs Taiwan Ltd
Source text: as §1

GABAA, chloride channel = system: GABAA, chloride channel
Source text: as §1

Serotonin 5-HT3 = target: T8, Serotonin 5-HT3 (Homo sapiens, UniProt P46098)
T8 construct: purchased Eurofins Panlabs Taiwan Ltd
Source text: as §1

Serotonin 5-HT2A = target: T9, Serotonin 5-HT2A (Homo sapiens, UniProt P28223)
T9 construct: purchased Eurofins Panlabs Taiwan Ltd
Source text: as §1

Tachykinin NK1 = target: T10, Tachykinin NK1 (Homo sapiens, UniProt P25103)
T10 construct: purchased Eurofins Panlabs Taiwan Ltd
Source text: as §1

Angiotensin AT1 = target: T11, Angiotensin AT1 (Homo sapiens, UniProt P30556)
T11 construct: purchased Eurofins Panlabs Taiwan Ltd
Source text: as §1

[2] = system: Glutamate, NMDA, phencyclidine
Source text: as §1

Glucocorticoid = target: T12, Glucocorticoid (Homo sapiens, UniProt P04150)
T12 construct: purchased Eurofins Panlabs Taiwan Ltd
Source text: as §1

Cannabinoid CB2 = target: T13, Cannabinoid CB2 (Homo sapiens, UniProt P34972)
T13 construct: purchased Eurofins Panlabs Taiwan Ltd
Source text: as §1

Glutamate, NMDA, glycine = system: Glutamate, NMDA, glycine
Source text: as §1

Adrenergic β3 = target: T14, Adrenergic β3 (Homo sapiens, UniProt P13945)
T14 construct: purchased Eurofins Panlabs Taiwan Ltd
Source text: as §1

Glutamate, NMDA = system: Glutamate, NMDA
Source text: as §1

Muscarinic M3 = target: T15, Muscarinic M3 (Homo sapiens, UniProt P20309)
T15 construct: purchased Eurofins Panlabs Taiwan Ltd
Source text: as §1

Serotonin 5-HT1A = target: T16, Serotonin 5-HT1A (Homo sapiens, UniProt P08908)
T16 construct: purchased Eurofins Panlabs Taiwan Ltd
Source text: as §1

[3] = system: Calcium channel L-type, benzothiazepine
Source text: as §1

Glutamate, AMPA = system: Glutamate, AMPA
Source text: as §1

Serotonin 5-HT2B = target: T17, Serotonin 5-HT2B (Homo sapiens, UniProt P41595)
T17 construct: purchased Eurofins Panlabs Taiwan Ltd
Source text: as §1

[4] = system: GABAA, flunitrazepam, central
Source text: as §1

Opiate κ (OP2, KOP) = target: T18, Opiate κ (OP2, KOP) (Homo sapiens, UniProt P41145)
T18 construct: purchased Eurofins Panlabs Taiwan Ltd
Source text: as §1

Vasopressin V2 = target: T19, Vasopressin V2 (Homo sapiens, UniProt P30518)
T19 construct: purchased Eurofins Panlabs Taiwan Ltd
Source text: as §1

GABAB1B = target: T20, GABAB1B (Homo sapiens, UniProt Q9UBS5)
T20 construct: purchased Eurofins Panlabs Taiwan Ltd
Source text: as §1

Potassium channel (KATP) = system: Potassium channel (KATP)
Source text: as §1

[5] = target: T21, Transporter, dopamine (DAT) (Homo sapiens, UniProt Q01959)
T21 construct: purchased Eurofins Panlabs Taiwan Ltd
Source text: as §1

[6] = system: Estrogen Receptor (non-selective)
Source text: as §1

Opiate δ1 (OP1, DOP) = target: T22, Opiate δ1 (OP1, DOP) (Homo sapiens, UniProt P41143)
T22 construct: purchased Eurofins Panlabs Taiwan Ltd
Source text: as §1

Calcium channel N-type = target: T23, Calcium channel N-type (Rattus norvegicus, UniProt Q02294)
T23 construct: purchased Eurofins Panlabs Taiwan Ltd
Source text: as §1

[7] = system: Adrenergic α2, non-selective
Source text: as §1

Sigma, non-selective = system: Sigma, non-selective
Source text: as §1

[8] = system: Glycine, strychnine-sensitive
Source text: as §1

[9] = system: Calcium channel L-type, dihydropyridine
Source text: as §1

[10] = target: T24, Transporter, norepinephrine (NET) (Homo sapiens, UniProt P23975)
T24 construct: purchased Eurofins Panlabs Taiwan Ltd
Source text: as §1

[11] = target: T25, Cholecystokinin CCK1 (CCKA) (Homo sapiens, UniProt P32238)
T25 construct: purchased Eurofins Panlabs Taiwan Ltd
Source text: as §1

Nicotinic acetylcholine = system: Nicotinic acetylcholine
Source text: as §1

Dopamine D3 = target: T26, Dopamine D3 (Homo sapiens, UniProt P35462)
T26 construct: purchased Eurofins Panlabs Taiwan Ltd
Source text: as §1

IP (PGI2) = target: T27, IP (PGI2) (Homo sapiens, UniProt P43119)
T27 construct: purchased Eurofins Panlabs Taiwan Ltd
Source text: as §1

[12] = target: T28, Transporter, serotonin (SERT) (Homo sapiens, UniProt P31645)
T28 construct: purchased Eurofins Panlabs Taiwan Ltd
Source text: as §1

[13] = system: Adrenergic α1, non-selective
Source text: as §1

T7 sequence (P11229 whole entry): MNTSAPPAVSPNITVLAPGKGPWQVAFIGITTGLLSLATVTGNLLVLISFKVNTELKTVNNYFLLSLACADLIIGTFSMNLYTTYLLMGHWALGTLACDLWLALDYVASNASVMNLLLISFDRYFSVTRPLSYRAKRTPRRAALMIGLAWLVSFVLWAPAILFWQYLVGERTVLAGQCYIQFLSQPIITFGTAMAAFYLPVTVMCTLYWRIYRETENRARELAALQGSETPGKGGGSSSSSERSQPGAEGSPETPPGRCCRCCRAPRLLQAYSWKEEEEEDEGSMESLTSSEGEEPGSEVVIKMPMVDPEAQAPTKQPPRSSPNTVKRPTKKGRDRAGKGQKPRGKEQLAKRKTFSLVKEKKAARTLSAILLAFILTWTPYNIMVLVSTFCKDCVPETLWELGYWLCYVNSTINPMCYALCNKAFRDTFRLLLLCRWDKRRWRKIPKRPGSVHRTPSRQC
T17 sequence (P41595 whole entry): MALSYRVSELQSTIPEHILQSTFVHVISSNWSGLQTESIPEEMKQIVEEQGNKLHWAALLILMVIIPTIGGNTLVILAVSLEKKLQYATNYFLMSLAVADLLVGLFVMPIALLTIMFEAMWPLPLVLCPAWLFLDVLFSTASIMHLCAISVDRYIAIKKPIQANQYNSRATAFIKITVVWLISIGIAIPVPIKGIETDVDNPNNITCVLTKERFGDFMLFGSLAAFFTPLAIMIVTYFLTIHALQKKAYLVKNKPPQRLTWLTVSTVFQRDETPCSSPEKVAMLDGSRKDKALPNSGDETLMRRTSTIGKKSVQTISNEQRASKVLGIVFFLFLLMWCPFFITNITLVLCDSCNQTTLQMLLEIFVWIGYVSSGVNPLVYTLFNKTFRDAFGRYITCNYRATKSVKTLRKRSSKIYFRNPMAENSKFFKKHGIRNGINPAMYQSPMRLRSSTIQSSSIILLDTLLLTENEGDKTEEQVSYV
T23 sequence (Q02294 whole entry): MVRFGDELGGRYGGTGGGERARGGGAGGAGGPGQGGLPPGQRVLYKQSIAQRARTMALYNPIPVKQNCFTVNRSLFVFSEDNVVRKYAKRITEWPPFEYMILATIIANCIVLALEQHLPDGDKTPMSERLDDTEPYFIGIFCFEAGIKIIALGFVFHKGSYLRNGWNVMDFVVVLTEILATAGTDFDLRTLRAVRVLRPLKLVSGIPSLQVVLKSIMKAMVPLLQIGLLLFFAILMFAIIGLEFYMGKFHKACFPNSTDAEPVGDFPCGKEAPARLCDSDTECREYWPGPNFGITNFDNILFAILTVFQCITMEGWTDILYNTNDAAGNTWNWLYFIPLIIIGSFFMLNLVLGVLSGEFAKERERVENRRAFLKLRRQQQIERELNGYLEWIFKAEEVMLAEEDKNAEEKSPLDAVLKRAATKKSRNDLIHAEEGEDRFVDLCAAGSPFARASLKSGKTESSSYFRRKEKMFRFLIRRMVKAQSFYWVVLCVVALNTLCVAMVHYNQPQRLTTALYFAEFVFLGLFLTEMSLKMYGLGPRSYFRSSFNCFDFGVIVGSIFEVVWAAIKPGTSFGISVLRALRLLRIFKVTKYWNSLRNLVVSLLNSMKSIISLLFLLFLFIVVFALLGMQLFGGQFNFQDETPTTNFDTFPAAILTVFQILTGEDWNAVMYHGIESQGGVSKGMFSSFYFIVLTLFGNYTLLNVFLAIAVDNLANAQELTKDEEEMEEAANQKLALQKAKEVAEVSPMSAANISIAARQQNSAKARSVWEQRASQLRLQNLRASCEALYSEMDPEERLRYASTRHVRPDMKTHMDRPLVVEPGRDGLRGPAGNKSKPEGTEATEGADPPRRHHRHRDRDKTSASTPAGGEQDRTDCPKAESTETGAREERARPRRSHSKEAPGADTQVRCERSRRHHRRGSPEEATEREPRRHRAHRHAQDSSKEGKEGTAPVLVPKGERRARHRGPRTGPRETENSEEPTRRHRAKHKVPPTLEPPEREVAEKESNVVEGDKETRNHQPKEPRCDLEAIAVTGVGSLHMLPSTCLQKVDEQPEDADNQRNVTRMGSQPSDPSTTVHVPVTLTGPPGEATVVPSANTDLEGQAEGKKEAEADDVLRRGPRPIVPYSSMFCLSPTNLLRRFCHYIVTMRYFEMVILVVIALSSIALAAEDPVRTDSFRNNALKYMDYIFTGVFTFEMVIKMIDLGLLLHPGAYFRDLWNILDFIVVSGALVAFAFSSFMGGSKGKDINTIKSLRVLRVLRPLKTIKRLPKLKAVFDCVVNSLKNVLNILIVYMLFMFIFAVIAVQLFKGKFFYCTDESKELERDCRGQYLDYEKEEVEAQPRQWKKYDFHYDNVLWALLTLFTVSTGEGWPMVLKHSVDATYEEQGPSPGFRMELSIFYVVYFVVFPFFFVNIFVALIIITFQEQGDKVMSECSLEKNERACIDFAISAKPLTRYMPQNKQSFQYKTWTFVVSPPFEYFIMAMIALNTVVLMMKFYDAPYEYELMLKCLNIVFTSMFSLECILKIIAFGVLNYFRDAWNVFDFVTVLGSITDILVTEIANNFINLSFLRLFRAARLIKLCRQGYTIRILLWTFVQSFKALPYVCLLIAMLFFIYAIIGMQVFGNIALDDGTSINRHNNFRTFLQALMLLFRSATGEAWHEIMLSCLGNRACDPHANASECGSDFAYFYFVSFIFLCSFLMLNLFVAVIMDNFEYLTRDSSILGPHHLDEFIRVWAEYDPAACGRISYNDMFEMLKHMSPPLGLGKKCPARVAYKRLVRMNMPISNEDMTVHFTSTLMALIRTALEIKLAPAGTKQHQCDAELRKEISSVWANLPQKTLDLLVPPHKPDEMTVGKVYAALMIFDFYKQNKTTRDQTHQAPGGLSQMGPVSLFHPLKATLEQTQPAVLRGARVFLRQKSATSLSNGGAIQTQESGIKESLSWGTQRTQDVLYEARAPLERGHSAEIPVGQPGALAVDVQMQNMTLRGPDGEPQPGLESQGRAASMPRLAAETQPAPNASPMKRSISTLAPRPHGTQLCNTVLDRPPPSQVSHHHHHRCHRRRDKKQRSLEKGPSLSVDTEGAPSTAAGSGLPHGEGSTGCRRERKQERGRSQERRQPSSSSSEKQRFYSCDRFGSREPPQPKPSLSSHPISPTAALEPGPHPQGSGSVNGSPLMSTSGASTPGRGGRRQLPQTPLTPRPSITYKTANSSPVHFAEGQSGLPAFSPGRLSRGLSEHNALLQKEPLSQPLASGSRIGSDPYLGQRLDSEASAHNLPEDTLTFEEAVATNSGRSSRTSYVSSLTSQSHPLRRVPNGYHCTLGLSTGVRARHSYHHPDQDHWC
T21 sequence (Q01959 whole entry): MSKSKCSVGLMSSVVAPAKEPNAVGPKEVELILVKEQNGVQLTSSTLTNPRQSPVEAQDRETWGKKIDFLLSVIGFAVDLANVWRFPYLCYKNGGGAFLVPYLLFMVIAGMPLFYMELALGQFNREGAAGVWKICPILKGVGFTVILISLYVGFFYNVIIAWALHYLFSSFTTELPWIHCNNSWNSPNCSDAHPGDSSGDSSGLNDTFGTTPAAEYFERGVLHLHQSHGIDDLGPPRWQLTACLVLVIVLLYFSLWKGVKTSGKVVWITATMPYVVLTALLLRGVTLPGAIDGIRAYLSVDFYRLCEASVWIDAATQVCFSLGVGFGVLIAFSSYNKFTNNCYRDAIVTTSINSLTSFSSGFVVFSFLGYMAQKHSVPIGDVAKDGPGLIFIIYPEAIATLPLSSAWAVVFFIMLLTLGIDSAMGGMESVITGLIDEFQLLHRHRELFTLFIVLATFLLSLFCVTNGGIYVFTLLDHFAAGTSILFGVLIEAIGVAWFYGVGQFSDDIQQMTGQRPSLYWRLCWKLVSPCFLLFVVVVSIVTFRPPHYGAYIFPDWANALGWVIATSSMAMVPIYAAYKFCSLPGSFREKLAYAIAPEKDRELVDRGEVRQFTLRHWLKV
T1 sequence (P37288 whole entry): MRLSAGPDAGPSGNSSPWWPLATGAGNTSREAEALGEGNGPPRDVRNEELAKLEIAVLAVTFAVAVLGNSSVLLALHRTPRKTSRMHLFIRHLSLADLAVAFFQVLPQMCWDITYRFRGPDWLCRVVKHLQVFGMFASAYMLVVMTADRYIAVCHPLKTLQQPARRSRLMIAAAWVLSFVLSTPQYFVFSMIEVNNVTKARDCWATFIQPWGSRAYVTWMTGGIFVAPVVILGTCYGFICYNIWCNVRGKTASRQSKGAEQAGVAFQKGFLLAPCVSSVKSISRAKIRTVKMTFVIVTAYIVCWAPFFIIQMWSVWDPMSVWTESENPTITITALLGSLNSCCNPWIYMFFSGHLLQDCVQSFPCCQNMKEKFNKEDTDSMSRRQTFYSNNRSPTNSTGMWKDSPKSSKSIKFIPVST
T19 sequence (P30518 whole entry): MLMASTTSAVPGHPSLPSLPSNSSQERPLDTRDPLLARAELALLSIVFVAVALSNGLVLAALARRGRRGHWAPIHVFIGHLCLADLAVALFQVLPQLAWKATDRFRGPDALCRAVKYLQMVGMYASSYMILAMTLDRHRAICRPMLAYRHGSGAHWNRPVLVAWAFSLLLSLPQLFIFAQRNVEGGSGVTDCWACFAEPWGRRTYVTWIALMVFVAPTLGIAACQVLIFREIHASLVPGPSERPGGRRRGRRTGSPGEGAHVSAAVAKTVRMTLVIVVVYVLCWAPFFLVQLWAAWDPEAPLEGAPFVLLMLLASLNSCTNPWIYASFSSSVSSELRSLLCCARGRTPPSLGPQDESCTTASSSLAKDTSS
T18 sequence (P41145 whole entry): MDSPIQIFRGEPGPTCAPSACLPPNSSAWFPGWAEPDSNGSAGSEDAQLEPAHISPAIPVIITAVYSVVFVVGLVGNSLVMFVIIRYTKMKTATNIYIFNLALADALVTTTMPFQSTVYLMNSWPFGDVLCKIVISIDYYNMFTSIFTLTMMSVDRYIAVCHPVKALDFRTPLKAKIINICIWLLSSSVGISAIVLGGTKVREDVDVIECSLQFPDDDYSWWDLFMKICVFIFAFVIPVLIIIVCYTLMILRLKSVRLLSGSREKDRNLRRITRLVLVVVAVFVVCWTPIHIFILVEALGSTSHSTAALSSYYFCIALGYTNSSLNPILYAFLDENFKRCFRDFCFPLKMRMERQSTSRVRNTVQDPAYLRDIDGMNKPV

## Cc1c(Cc2ccc(Cl)nc2)cc2c(c1Cl)OCN([C@H]1CCC[C@@H]1O)C2=O [T‐495, 8‐chloro‐6‐((6‐chloropyridin‐3‐yl)methyl)‐3‐((1S,2S)‐2‐hydroxycyclopentyl)‐7‐methyl‐2,3‐dihydro‐4H‐1,3‐benzoxazin‐4‐one]
Vasopressin V1A
  inhibition at 10 µM: 7%
Imidazoline I2, central
  % inhibition at 10 μM: 76%
GABAA, muscimol, central
  % inhibition at 10 μM: -1%
Adenosine A2B
  inhibition at 10 µM: 7%
Tachykinin NK3
  inhibition at 10 µM: 5%
Serotonin 5-HT2C
  inhibition at 10 µM: 10%
Bradykinin B1
  inhibition at 10 µM: 2%
GABAB1A
  inhibition at 10 µM: 5%
[1]
  % inhibition at 10 μM: 12%
Muscarinic M1
  inhibition at 10 µM: 15%
GABAA, chloride channel
  % inhibition at 10 μM: 45%
Serotonin 5-HT3
  inhibition at 10 µM: -3%
Serotonin 5-HT2A
  inhibition at 10 µM: 20%
Tachykinin NK1
  inhibition at 10 µM: -2%
Angiotensin AT1
  inhibition at 10 µM: 23%
[2]
  % inhibition at 10 μM: 3%
Glucocorticoid
  inhibition at 10 µM: 25%
Cannabinoid CB2
  inhibition at 10 µM: 12%
Glutamate, NMDA, glycine
  % inhibition at 10 μM: 15%
Adrenergic β3
  inhibition at 10 µM: 7%
Glutamate, NMDA
  % inhibition at 10 μM: 14%
Muscarinic M3
  inhibition at 10 µM: 20%
Serotonin 5-HT1A
  inhibition at 10 µM: 8%
[3]
  % inhibition at 10 μM: -5%
Glutamate, AMPA
  % inhibition at 10 μM: 20%
Serotonin 5-HT2B
  inhibition at 10 µM: 28%
[4]
  % inhibition at 10 μM: 12%
Opiate κ (OP2, KOP)
  inhibition at 10 µM: 14%
Vasopressin V2
  inhibition at 10 µM: -7%
GABAB1B
  inhibition at 10 µM: 6%
Potassium channel (KATP)
  % inhibition at 10 μM: 2%
[5]
  inhibition at 10 µM: 58%
[6]
  % inhibition at 10 μM: 5%
Opiate δ1 (OP1, DOP)
  inhibition at 10 µM: 4%
Calcium channel N-type
  inhibition at 10 µM: 0%
[7]
  % inhibition at 10 μM: 26%
Sigma, non-selective
  % inhibition at 10 μM: 25%
[8]
  % inhibition at 10 μM: 9%
[9]
  % inhibition at 10 μM: 27%
[10]
  inhibition at 10 µM: 17%
[11]
  inhibition at 10 µM: 2%
Nicotinic acetylcholine
  % inhibition at 10 μM: -4%
Dopamine D3
  inhibition at 10 µM: -3%
IP (PGI2)
  inhibition at 10 µM: 16%
[12]
  inhibition at 10 µM: 17%
[13]
  % inhibition at 10 μM: 11%
